This note sets out measurements from patent publication US20260262643A1, “HERBICIDAL BENZOXAZINES” (FMC CORPORATION, priority 2022, published 2026).

Assay [1] relates to barnyardgrass. In words: Test D flooded paddy test. The class given is in vivo, Echinochloa crus-galli. The settings on record: 250 g ai/ha, applied to paddy water, visual rating after 13 to 14 days, scale 0 to 100 (0 no effect, 100 complete control). Here is the method:
(§1) Plant species in the flooded paddy test selected from barnyardgrass (Echinochloa crus-galli), ducksalad (Heteranthera limosa), rice (Oryza sativa), and sedge, umbrella (small-flower umbrella sedge, Cyperus difformis) were grown to the 2-leaf stage for testing. At time of treatment, test pots were flooded to 3 cm above the soil surface, treated by application of test compounds directly to the paddy water, and then maintained at that water depth for the duration of the test. Treated plants and controls were maintained in a greenhouse for 13 to 14 days, after which time all species were compared to controls and visually evaluated. Plant response ratings, summarized in Table D, are based on a scale of 0 to 100 where 0 is no effect and 100 is complete control. A dash (-) response means no test result.

A further assay relates to ducksalad. The assay can be described thus: Test D flooded paddy test. The class given is in vivo, Heteranthera limosa. The note with it: 250 g ai/ha, applied to paddy water, visual rating after 13 to 14 days, scale 0 to 100 (0 no effect, 100 complete control). On the procedure:
as §1

In the next assay the test system is rice. In words: Test D flooded paddy test. The settings on record: 250 g ai/ha, applied to paddy water, visual rating after 13 to 14 days, scale 0 to 100 (0 no effect, 100 complete control). The format is in vivo, Oryza sativa. Here is the method:
as §1

A further assay concerns sedge, umbrella. The assay can be described thus: Test D flooded paddy test. The format is in vivo, Cyperus difformis. The note with it: 250 g ai/ha, applied to paddy water, visual rating after 13 to 14 days, scale 0 to 100 (0 no effect, 100 complete control). Here is the method:
as §1

Assay [2] concerns barnyardgrass. In words: Test C preemergence. The class given is in vivo, Echinochloa crusgalli. The settings on record: Test C, preemergence, 125 g ai/ha; 0 to 100 scale (0 no effect, 100 complete control). An outline of the steps: (§2)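 Seeds in loam–sand blend received preemergence directed soil spray of test chemicals in non-phytotoxic solvent with surfactant; postemergence treatment was applied at one- to two-leaf stage (2–10 cm). After 10 days in greenhouse, injury rated visually versus untreated controls, 0 (no effect) to 100 (complete control).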

Assay [3] deals with blackgrass. In words: Test C preemergence. The note with it: Test C, preemergence, 125 g ai/ha; 0 to 100 scale (0 no effect, 100 complete control). The class given is in vivo, Alopecurus myosuroides. An outline of the steps:
as §2

The subject of assay [4] is corn. The assay can be described thus: Test C preemergence. The settings on record: Test C, preemergence, 125 g ai/ha; 0 to 100 scale (0 no effect, 100 complete control). The format is in vivo, Zea mays. An outline of the steps:
as §2

For the next assay, the system named is green foxtail. The assay can be described thus: Test C preemergence. The note with it: Test C, preemergence, 125 g ai/ha; 0 to 100 scale (0 no effect, 100 complete control). The class given is in vivo, Setaria viridis. An outline of the steps: as §2
The subject of assay [5] is kochia. The assay can be described thus: Test C preemergence. The class given is in vivo, Bassia scoparia. The note with it: Test C, preemergence, 125 g ai/ha; 0 to 100 scale (0 no effect, 100 complete control). An outline of the steps:
as §2

Assay [6] has as its system oat, wild. In words: Test C preemergence. The format is in vivo, Avena fatua. The settings on record: Test C, preemergence, 125 g ai/ha; 0 to 100 scale (0 no effect, 100 complete control). An outline of the steps:
as §2

Assay [7] has as its system pigweed, palmer. In words: Test C preemergence. The class given is in vivo, Amaranthus palmeri. The settings on record: Test C, preemergence, 125 g ai/ha; 0 to 100 scale (0 no effect, 100 complete control). An outline of the steps: as §2
For assay [8], the system named is ragweed. The assay can be described thus: Test C preemergence. The format is in vivo, Ambrosia artemisiifolia. The note with it: Test C, preemergence, 125 g ai/ha; 0 to 100 scale (0 no effect, 100 complete control). An outline of the steps:
as §2

In assay [9] the test system is ryegrass, Italian. In words: Test C preemergence. The class given is in vivo, Lolium multiflorum. The note with it: Test C, preemergence, 125 g ai/ha; 0 to 100 scale (0 no effect, 100 complete control). An outline of the steps: as §2
Assay [10] deals with soybean. In words: Test C preemergence. The class given is in vivo, Glycine max. The settings on record: Test C, preemergence, 125 g ai/ha; 0 to 100 scale (0 no effect, 100 complete control). An outline of the steps:
as §2

The test system of assay [11] is wheat. In words: Test C preemergence. The class given is in vivo, Triticum aestivum. The note with it: Test C, preemergence, 125 g ai/ha; 0 to 100 scale (0 no effect, 100 complete control). An outline of the steps:
as §2

For assay [12], the system named is barnyardgrass. The assay can be described thus: Test C postemergence. The format is in vivo, Echinochloa crusgalli. The settings on record: 125 g ai/ha, postemergence, 10 days; 0 to 100 scale, 0 no effect, 100 complete control. An outline of the steps:
as §2

The subject of assay [13] is blackgrass. In words: Test C postemergence. The format is in vivo, Alopecurus myosuroides. The note with it: 125 g ai/ha, postemergence, 10 days; 0 to 100 scale, 0 no effect, 100 complete control. An outline of the steps:
as §2

The subject of assay [14] is corn. In words: Test C postemergence. The settings on record: 125 g ai/ha, postemergence, 10 days; 0 to 100 scale, 0 no effect, 100 complete control. The class given is in vivo, Zea mays. An outline of the steps:
as §2

For assay [15], the system named is kochia. In words: Test C postemergence. The format is in vivo, Bassia scoparia. The note with it: 125 g ai/ha, postemergence, 10 days; 0 to 100 scale, 0 no effect, 100 complete control. An outline of the steps: as §2
In assay [16] the test system is oat, wild. The assay can be described thus: Test C postemergence. The note with it: 125 g ai/ha, postemergence, 10 days; 0 to 100 scale, 0 no effect, 100 complete control. The class given is in vivo, Avena fatua. An outline of the steps:
as §2

Assay [17] concerns pigweed, palmer. The assay can be described thus: Test C postemergence. The format is in vivo, Amaranthus palmeri. The note with it: 125 g ai/ha, postemergence, 10 days; 0 to 100 scale, 0 no effect, 100 complete control. An outline of the steps: as §2
Assay [18] deals with ragweed. In words: Test C postemergence. The class given is in vivo, Ambrosia artemisiifolia. The note with it: 125 g ai/ha, postemergence, 10 days; 0 to 100 scale, 0 no effect, 100 complete control. An outline of the steps: as §2
The subject of assay [19] is ryegrass, Italian. In words: Test C postemergence. The note with it: 125 g ai/ha, postemergence, 10 days; 0 to 100 scale, 0 no effect, 100 complete control. The class given is in vivo, Lolium multiflorum. An outline of the steps:
as §2

Assay [20] deals with soybean. In words: Test C postemergence. The settings on record: 125 g ai/ha, postemergence, 10 days; 0 to 100 scale, 0 no effect, 100 complete control. The class given is in vivo, Glycine max. An outline of the steps: as §2
The test system of assay [21] is wheat. The assay can be described thus: Test C postemergence. The class given is in vivo, Triticum aestivum. The note with it: 125 g ai/ha, postemergence, 10 days; 0 to 100 scale, 0 no effect, 100 complete control. An outline of the steps:
as §2

Another assay concerns galium. In words: Test C postemergence. The class given is in vivo, Galium aparine. The settings on record: 125 g ai/ha, postemergence, 10 days; 0 to 100 scale, 0 no effect, 100 complete control. An outline of the steps:
as §2

The next assay deals with horseweed. The assay can be described thus: Test C postemergence. The settings on record: 125 g ai/ha, postemergence, 10 days; 0 to 100 scale, 0 no effect, 100 complete control. The format is in vivo, Erigeron canadensis. An outline of the steps:
as §2

`COC(=O)N(C)c1ncn(-c2cccc(C(=O)N3C[C@H](C)Oc4c(C)cccc43)c2)n1` [Compound 300]: the “Plant response rating, Barnyardgrass (Flood)” value in the assay on barnyardgrass [1] is listed as 0. The “Plant response rating, Ducksalad (Flood)” value in the assay with ducksalad was determined as 0. For the same compound, the “Plant response rating, Rice (Flood)” value with rice was found to be 0. Besides, the “Plant response rating, Sedge, Umbrella (Flood)” value in the assay on sedge, umbrella was found to be 0.

Regarding `COC[C@H]1CN(C(=O)c2cc(-n3cnc(C(C)(C)C)n3)ccc2OC)c2cccc(Cl)c2O1` [Compound 230], in the assay with barnyardgrass [2], the “Barnyardgrass plant response rating” value is reported as 60. Further, in the assay with blackgrass [3], the “Blackgrass plant response rating” value is given as 70. The “Corn plant response rating” value with corn [4] was determined as 20. Moreover, in the assay with green foxtail, the “Foxtail, Green plant response rating” value turned out to be 100. Besides, the “Kochia plant response rating” value in the assay with kochia [5] is listed as 0. The “Oat, Wild plant response rating” value with oat, wild [6] amounted to 50. Further, the “Pigweed, Palmer plant response rating” value with pigweed, palmer [7] was 100. For the same compound, the “Ragweed plant response rating” value with ragweed [8] was 60. The “Ryegrass, Italian plant response rating” value with ryegrass, Italian [9] came out at 80. Moreover, in the assay with soybean [10], the “Soybean plant response rating” value is listed as 90. Further, the “Wheat plant response rating” value with wheat [11] was 30. Further, the “Plant response rating, Barnyardgrass” value in the assay with barnyardgrass [12] came to 60. Also, the “Plant response rating, Blackgrass” value in the assay on blackgrass [13] turned out to be 40. Moreover, the “Plant response rating, Corn” value in the assay with corn [14] was determined as 60. Moreover, the “Plant response rating, Kochia” value in the assay with kochia [15] is 90. In addition, the “Plant response rating, Oat, Wild” value in the assay on oat, wild [16] was 20. Also, the “Plant response rating, Pigweed, Palmer” value with pigweed, palmer [17] was 100. Further, in the assay on ragweed [18], the “Plant response rating, Ragweed” value came out at 90. In the assay on ryegrass, Italian [19], the “Plant response rating, Ryegrass, Italian” value is 60. Moreover, the “Plant response rating, Soybean” value in the assay with soybean [20] amounted to 100. Further, the “Plant response rating, Wheat” value in the assay on wheat [21] came out at 40. Besides, in the assay with galium, the “Plant response rating, Galium” value was 100. In the assay on horseweed, the “Plant response rating, Horseweed” value amounted to 40. Moreover, the “Plant response rating, Barnyardgrass (Flood)” value in the assay on barnyardgrass [1] is on record as 15. In the assay with ducksalad, the “Plant response rating, Ducksalad (Flood)” value was found to be 70. In addition, in the assay on sedge, umbrella, the “Plant response rating, Sedge, Umbrella (Flood)” value is given as 98.
